One may read the EC50 as the concentration at which the effect is half-maximal. The low end stands for greater potency, the high end for weaker potency.

SMILES strings stand for the structures.

One assay deals with secreted mouse PGRN. Put plainly: progranulin induction cellular assay (PGRN assay, ELISA-based readout). Particulars: Mus musculus, progranulin secreted into cell culture medium, cells named in method: mouse primary microglia, primary cortical neurons, BV-2. How it is done: Cellular Assays: To measure the efficacy of compounds, a progranulin induction cellular assay in mouse primary microglia (pMG), primary cortical neurons, and BV-2 cell lines is used. BV-2 cells are split the day before plating into a 96well plate format at approximately 80%. Cells should be plated the day before and allowed for 1 hour attachment period and for 16 hour incubation. Levels of progranulin secreted into the cell culture medium or retained in the cell lysate can be quantified using an ELISA-based readout and measurement of secreted mouse PGRN in the medium was assessed by the methodology published by Ghidoni et al. 2012. Standard ELISA kits to measure PGRN are available from vendors such as Adipogen, R&D, and Biovendor.
Table D below presents the results of a PGRN assay as described above.
(In general: ELISA stands for enzyme-linked immunosorbent assay.)
The molecule `Fc1ccc([C@H]2c3ccccc3CCN2C2=N[C@H](C3CCNCC3)CO2)cc1` (single isomer, unassigned) [Compound 3134] came in with an EC50 of 312 nM. The same measure, in the same setting: next, `Fc1ccc([C@H]2c3ccccc3CCN2C2=NC[C@@H]([C@@H]3CCCNC3)O2)cc1` (single isomer, unassigned) [Compound 3149]: 481 nM; `CN1CCC[C@@H]([C@@H]2CN=C(N3CCc4ccccc4[C@@H]3c3ccc(F)cc3)O2)C1` (single isomer, unassigned) [Compound 3150]: 266 nM; `CN1CCC[C@@H]([C@H]2CN=C(N3CCc4ccccc4[C@@H]3c3ccc(F)cc3)O2)C1` (single isomer, unassigned) [Compound 3151]: 3100 nM.

In turn, `CN1CCC[C@H]([C@@H]2CN=C(N3CCc4ccccc4[C@@H]3c3ccc(F)cc3)O2)C1` (single isomer, unassigned) [Compound 3152] registered an EC50 of 406 nM.

In turn, `CN1CCC[C@H]([C@H]2CN=C(N3CCc4ccccc4[C@@H]3c3ccc(F)cc3)O2)C1` (single isomer, unassigned) [Compound 3153] had an EC50 of 940 nM. On the same count and under the same terms, the value for `Fc1ccc([C@H]2c3ccccc3CCN2C2=NC[C@@H](C3(F)CNC3)O2)cc1` (single isomer, unassigned) [Compound 3154] was 132 nM; that for `Fc1ccc([C@H]2c3ccccc3CCN2C2=NC[C@H](C3(F)CNC3)O2)cc1` (single isomer, unassigned) [Compound 3155] was 192 nM. The same measure, in the same setting: next, `Fc1ccc([C@H]2c3ccccc3CCN2C2=N[C@@H](C3(F)CNC3)CO2)cc1` (single isomer, unassigned) [Compound 3156]: 99.8 nM; `Fc1ccc([C@H]2c3ccccc3CCN2C2=N[C@H](C3(F)CNC3)CO2)cc1` (single isomer, unassigned) [Compound 3157]: 77.7 nM.

`CN(C)[C@H]1C[C@]2(CN=C(N3CCc4ccccc4[C@@H]3c3ccc(F)cc3)O2)C1` (single isomer, unassigned) [Compound 3158] gave a concentration for a half-maximal effect (EC50) of 3580 nM. In the case of `CN(C)[C@H]1C[C@@]2(CN=C(N3CCc4ccccc4[C@@H]3c3ccc(F)cc3)O2)C1` (single isomer, unassigned) [Compound 3159], a half-maximal effect (EC50) was put at 209 nM. Against the preceding molecule, the EC50 is about 17-fold lower. The same measure, in the same setting: next, `NC[C@H]1C[C@@]2(CN=C(N3CCc4ccccc4[C@@H]3c3ccc(F)cc3)O2)C1` (single isomer, unassigned) [Compound 3160]: 993 nM; `NC[C@H]1C[C@]2(CN=C(N3CCc4ccccc4[C@@H]3c3ccc(F)cc3)O2)C1` (single isomer, unassigned) [Compound 3161]: 206 nM; `CN(C)[C@@H]1CC[C@@]2(CN=C(N3CCc4ccccc4[C@@H]3c3ccc(F)cc3)O2)C1` (single isomer, unassigned) [Compound 3163]: 237 nM. On to `CN(C)[C@@H]1CC[C@]2(CN=C(N3CCc4ccccc4[C@@H]3c3ccc(F)cc3)O2)C1` (single isomer, unassigned) [Compound 3164], for which the EC50 came to 137 nM. This EC50 lies about 1.7-fold lower than the previous one. Still for that read-out and setting: the value for `c1ccc([C@H]2c3ccccc3CCN2C2=NC[C@@]3(CCNC3)O2)cc1` (single isomer, unassigned) [Compound 3165] was 118 nM; that for `c1ccc([C@H]2c3ccccc3CCN2C2=NC[C@]3(CCNC3)O2)cc1` (single isomer, unassigned) [Compound 3166] was 163 nM; that for `Fc1ccc([C@H]2c3ccccc3CCN2C2=NC[C@]3(CNC[C@@H]3F)O2)cc1` (single isomer, unassigned) [Compound 3169] was 200 nM. Molecule `Fc1ccc([C@H]2c3ccccc3CCN2C2=NC[C@@]3(CNC[C@@H]3F)O2)cc1` (single isomer, unassigned) [Compound 3170] showed an EC50 of 538 nM. Same read-out and setting: the value for `Fc1cccc([C@H]2c3ccccc3CCN2C2=NC[C@@]3(CN4CCC3CC4)O2)c1` (stereo in doubt) [Compound 3020] was 9980 nM; that for `Fc1cccc([C@H]2c3ccccc3CCN2C2=NC[C@]3(CN4CCC3CC4)O2)c1` (stereo in doubt) [Compound 3021] was > 10000 nM; that for `Fc1cccc([C@@H]2c3ccccc3CCN2C2=NC[C@@]3(CN4CCC3CC4)O2)c1` (stereo in doubt) [Compound 3022] was 1490 nM. Still for that read-out and setting: next, `Fc1cccc([C@@H]2c3ccccc3CCN2C2=NC[C@]3(CN4CCC3CC4)O2)c1` (stereo in doubt) [Compound 3023]: 2170 nM. Same read-out and setting: next, `Fc1ccc([C@H]2c3ccccc3CCN2C2=NC[C@@]3(CN4CCC3CC4)O2)cc1F` (stereo in doubt) [Compound 3024]: 3960 nM; `Fc1ccc([C@H]2c3ccccc3CCN2C2=NC[C@]3(CN4CCC3CC4)O2)cc1F` (stereo in doubt) [Compound 3025]: 4060 nM. `Fc1ccc([C@@H]2c3ccccc3CCN2C2=NC[C@@]3(CN4CCC3CC4)O2)cc1F` (stereo in doubt) [Compound 3026] yielded an EC50 of 310 nM. Against the preceding molecule, the EC50 is about 13-fold lower. The same measure, in the same setting: next, `Fc1ccc([C@@H]2c3ccccc3CCN2C2=NC[C@]3(CN4CCC3CC4)O2)cc1F` (stereo in doubt) [Compound 3027]: 2080 nM; `CN1CCC[C@]2(CN=C(N3CCc4ccccc4[C@@H]3c3ccc(F)c(F)c3)O2)C1` (stereo in doubt) [Compound 3029]: 4020 nM; `CN1CCC[C@@]2(CN=C(N3CCc4ccccc4[C@@H]3c3ccc(F)c(F)c3)O2)C1` (stereo in doubt) [Compound 3030]: 9650 nM.

Consider `CN1CCC[C@]2(CN=C(N3CCc4ccccc4[C@H]3c3ccc(F)c(F)c3)O2)C1` (stereo in doubt) [Compound 3031], for which a half-maximal effect (EC50) was put at 4310 nM.

`CN1CCC[C@@]2(CN=C(N3CCc4ccccc4[C@H]3c3ccc(F)c(F)c3)O2)C1` (stereo in doubt) [Compound 3032]: a half-maximal effect (EC50) was put at 3430 nM. Same read-out and setting: the value for `Fc1cc(F)cc([C@H]2c3ccccc3CCN2C2=NC[C@]3(CN4CCC3CC4)O2)c1` (stereo in doubt) [Compound 3037] was 1000 nM; that for `Fc1cc(F)cc([C@@H]2c3ccccc3CCN2C2=NC[C@@]3(CN4CCC3CC4)O2)c1` (stereo in doubt) [Compound 3038] was 3910 nM.

On to `CN1CCC[C@]2(CN=C(N3CCc4ccccc4[C@@H]3c3cccc(F)c3F)O2)C1` (stereo in doubt) [Compound 3043], for which the EC50 was 3860 nM. Same read-out and setting: the value for `CN1CCC[C@@]2(CN=C(N3CCc4ccccc4[C@H]3c3cccc(F)c3F)O2)C1` (stereo in doubt) [Compound 3044] was 5000 nM; that for `Fc1ccc([C@H]2c3ccccc3CCN2C2=NO[C@@]3(C2)CN2CCC3CC2)cc1` [Compound 3028, 2((S)-1-(4-fluorophenyl)-3,4-dihydroisoquinolin-2(1H)-yl)-4-4-azaspiro[bicyclo[2.2.2]octane-2,5oxazole]] was > 3160 nM. In the case of `Fc1ccc([C@H]2c3ccccc3CCN2C2=NCC3(CNCCC3F)O2)cc1` (stereo partly drawn) [Compound 3035, 10-fluoro-2-((S)-1-(4-fluorophenyl)-3,4-dihydroisoquinolin-2(1H)-yl)-1-oxa-3,7-diazaspiro[4.5]dec-2-ene], the EC50 amounted to 620 nM.

The assay is the same for the next values; noted with them: progranulin secreted into cell culture medium, cells named in method: mouse primary microglia, primary cortical neurons, BV-2.
Take `Fc1cc(F)cc([C@H]2c3ccccc3CCN2C2=NC[C@]3(CN4CCC3CC4)O2)c1` (stereo in doubt) [Compound 3039]: a half-maximal effect (EC50) was put at 1050 nM.

These data come from patent publication US20220409593A1 (ARKUDA THERAPEUTICS, priority 2019, published 2022).
